Experimental data taken from the NIST ThermoML archive (doi:10.1007/s10765-008-0503-0).

Settings: Liquid; for viscosity: Vibrating wire viscometry; for mass density: vibrating wire

COCOC [dimethoxymethane]
Settings	mass density [kg/m3]	viscosity [mPa·s]
243.15 K, 100 kPa	917.773	0.6298
243.15 K, 4400 kPa	921.19	0.651
243.15 K, 9420 kPa	924.889	0.6752
243.15 K, 14450 kPa	928.455	0.7003
243.15 K, 19440 kPa	931.885	0.7258
253.15 K, 100 kPa	905.693	0.5389
253.15 K, 4420 kPa	909.439	0.556
253.15 K, 9410 kPa	913.399	0.5769
253.15 K, 14450 kPa	917.473	0.5975
253.15 K, 19440 kPa	921.171	0.6191
263.15 K, 100 kPa	893.705	0.4697
263.15 K, 4440 kPa	897.611	0.4857
263.15 K, 9440 kPa	901.958	0.5039
263.15 K, 14470 kPa	906.179	0.5215
263.15 K, 19470 kPa	910.144	0.5406
273.15 K, 100 kPa	881.433	0.4145
273.15 K, 4440 kPa	885.755	0.4285
273.15 K, 9440 kPa	890.38	0.4446
273.15 K, 14480 kPa	894.826	0.4615
273.15 K, 19540 kPa	899.081	0.4783
283.15 K, 100 kPa	869.282	0.3685
283.15 K, 4450 kPa	873.902	0.3818
283.15 K, 9430 kPa	878.977	0.3964
283.15 K, 14490 kPa	883.736	0.4114
283.15 K, 19550 kPa	888.33	0.4265
293.15 K, 100 kPa	857.043	0.3303
293.15 K, 4410 kPa	862.006	0.342
293.15 K, 9460 kPa	867.484	0.3559
293.15 K, 14490 kPa	872.625	0.3692
293.15 K, 19550 kPa	877.53	0.3832
303.15 K, 100 kPa	844.252	0.2963
303.15 K, 4450 kPa	849.702	0.3076
303.15 K, 9450 kPa	855.591	0.3199
303.15 K, 14490 kPa	861.24	0.3323
303.15 K, 19550 kPa	866.565	0.345
313.15 K, 160 kPa	831.685	0.2682
313.15 K, 4440 kPa	837.579	0.2785
313.15 K, 9420 kPa	843.933	0.2905
313.15 K, 14450 kPa	849.923	0.3022
313.15 K, 19440 kPa	855.5	0.3137
323.15 K, 190 kPa	818.682	0.2436
323.15 K, 4390 kPa	824.99	0.2532
323.15 K, 9420 kPa	832.095	0.2644
323.15 K, 14460 kPa	838.549	0.2758
323.15 K, 19490 kPa	844.585	0.2866
333.15 K, 210 kPa	805.334	0.2202
333.15 K, 4390 kPa	812.279	0.229
333.15 K, 9410 kPa	819.852	0.2401
333.15 K, 14450 kPa	826.872	0.2504
333.15 K, 19450 kPa	833.322	0.261
343.15 K, 280 kPa	791.705	0.2009
343.15 K, 4430 kPa	799.263	0.2096
343.15 K, 9430 kPa	807.432	0.2203
343.15 K, 14460 kPa	815.084	0.2301
343.15 K, 19460 kPa	822.037	0.24
353.15 K, 360 kPa	777.688	0.1837
353.15 K, 4370 kPa	785.794	0.1922
353.15 K, 9400 kPa	794.895	0.2024
353.15 K, 14450 kPa	803.147	0.2123
353.15 K, 19430 kPa	810.634	0.2217
363.15 K, 430 kPa	763.12	0.1688
363.15 K, 4400 kPa	772.066	0.1767
363.15 K, 9410 kPa	782.127	0.1868
363.15 K, 14450 kPa	791.118	0.1963
363.15 K, 19460 kPa	799.153	0.2059
373.15 K, 550 kPa	748.032	0.1551
373.15 K, 4370 kPa	757.736	0.1628
373.15 K, 9400 kPa	768.901	0.1728
373.15 K, 14450 kPa	778.77	0.1822
373.15 K, 19480 kPa	787.494	0.1914

COCCOC [1,2-dimethoxyethane]
Settings	mass density [kg/m3]	viscosity [mPa·s]
243.15 K, 100 kPa	919.667	0.8856
243.15 K, 4540 kPa	923.045	0.9166
243.15 K, 9560 kPa	926.586	0.9502
243.15 K, 14590 kPa	928.901	0.9855
243.15 K, 19470 kPa	931.879	1.017
253.15 K, 100 kPa	909.614	0.7464
253.15 K, 4550 kPa	912.595	0.7729
253.15 K, 9550 kPa	915.73	0.7995
253.15 K, 14450 kPa	917.844	0.8296
253.15 K, 19430 kPa	921.699	0.858
263.15 K, 100 kPa	899.206	0.642
263.15 K, 4560 kPa	901.757	0.6618
263.15 K, 9590 kPa	904.482	0.6849
263.15 K, 14590 kPa	908.179	0.7095
263.15 K, 19460 kPa	911.986	0.7337
273.15 K, 100 kPa	887.607	0.5585
273.15 K, 4560 kPa	890.738	0.5759
273.15 K, 9590 kPa	894.412	0.5961
273.15 K, 14550 kPa	898.792	0.6173
273.15 K, 19480 kPa	903.248	0.6392
283.15 K, 100 kPa	876.889	0.4904
283.15 K, 4550 kPa	880.455	0.5056
283.15 K, 9570 kPa	884.621	0.525
283.15 K, 14460 kPa	889.18	0.5458
283.15 K, 19450 kPa	892.89	0.5619
293.15 K, 100 kPa	866.528	0.4341
293.15 K, 4530 kPa	869.991	0.4492
293.15 K, 9560 kPa	875.037	0.4673
293.15 K, 14460 kPa	879.707	0.485
293.15 K, 19450 kPa	883.646	0.5011
303.15 K, 100 kPa	855.111	0.3896
303.15 K, 4540 kPa	859.667	0.4031
303.15 K, 9500 kPa	865.15	0.4197
303.15 K, 14440 kPa	869.454	0.4334
303.15 K, 19440 kPa	873.398	0.4494
313.15 K, 100 kPa	843.765	0.3512
313.15 K, 4540 kPa	848.633	0.3641
313.15 K, 9500 kPa	854.082	0.3784
313.15 K, 14440 kPa	858.578	0.3922
313.15 K, 19420 kPa	863.033	0.4055
323.15 K, 100 kPa	832.929	0.3189
323.15 K, 4560 kPa	838.334	0.3303
323.15 K, 9530 kPa	843.798	0.3433
323.15 K, 14450 kPa	848.464	0.3562
323.15 K, 19460 kPa	852.959	0.3693
333.15 K, 100 kPa	822.133	0.2903
333.15 K, 4550 kPa	827.195	0.3018
333.15 K, 9570 kPa	833.307	0.3129
333.15 K, 14460 kPa	837.525	0.3256
333.15 K, 19430 kPa	842.805	0.3372
343.15 K, 100 kPa	809.48	0.2653
343.15 K, 4540 kPa	815.487	0.2754
343.15 K, 9560 kPa	821.858	0.2868
343.15 K, 14440 kPa	827.359	0.2985
343.15 K, 19420 kPa	832.794	0.3093
353.15 K, 360 kPa	798.071	0.2437
353.15 K, 4560 kPa	803.982	0.2539
353.15 K, 9570 kPa	810.723	0.2642
353.15 K, 14440 kPa	817.205	0.2754
353.15 K, 19420 kPa	822.843	0.2858
363.15 K, 160 kPa	785.42	0.2233
363.15 K, 4560 kPa	792.463	0.233
363.15 K, 9570 kPa	799.914	0.2438
363.15 K, 14440 kPa	806.21	0.2557
363.15 K, 19420 kPa	812.462	0.2641
373.15 K, 200 kPa	772.627	0.2059
373.15 K, 4560 kPa	780.565	0.2157
373.15 K, 9580 kPa	788.637	0.2263
373.15 K, 14440 kPa	795.752	0.2355
373.15 K, 19420 kPa	802.7	0.2457
